Test results reported in paper PMC11249646, “Small-Molecule Disruptors of the Interaction between Calcium- and Integrin-Binding Protein 1 and Integrin αIIbβ3 as Novel Antiplatelet Agents” (ACS Pharmacology & Translational Science, 2024).
Like-named read-outs stand apart in the source and are kept apart here.

Tests used:
[1] = molecular target: T1, GST-CIB1 : F-αIIb peptide (Homo sapiens, UniProt Q99828); test: FP assay in the presence of glutathione (GSH), thiol reactivity; assay type: binding; details: for GSH/CIB1 IC50 ratio: ratio of GSH (+) IC50 to GSH (-) IC50; for GSH Assay Result: thiol reactivity call: No change / Active
T1 construct: made in house; host or cells: BL-21 plus RIL cells (E. coli)
T1 sequence (Q99828 1-191): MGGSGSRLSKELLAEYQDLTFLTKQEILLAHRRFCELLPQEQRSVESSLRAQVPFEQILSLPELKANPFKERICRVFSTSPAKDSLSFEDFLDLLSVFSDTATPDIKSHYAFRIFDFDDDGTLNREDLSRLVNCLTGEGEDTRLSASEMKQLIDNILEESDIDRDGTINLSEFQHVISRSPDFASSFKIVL

[2] = molecular target: T2, GST-CIB1:F-αIIb interaction (Homo sapiens, UniProt Q99828); test: Gel-based (in-gel) binding assay; details: 1 μM GST-CIB1, 400 nM F-αIIb; for Active in Gel Assay?: 60 μM, 1:2, 4-points
T2 construct: made in house; host or cells: BL-21 plus RIL cells (E. coli)
T2 sequence (Q99828 1-191): T1 sequence (Q99828 1-191)

[3] = molecular target: T3, GST-CIB1 : F-scrambled peptide (Homo sapiens, UniProt Q99828); test: FP scrambled-peptide counter screen, 1536-well format; assay type: binding; details: for COUNTERSCREEN Curve Class: qHTS curve class; for IC50: read-out: COUNTERSCREEN IC50; for COUNTERSCREEN Confirm?: YES/NO call
T3 construct: made in house; host or cells: BL-21 plus RIL cells (E. coli)
T3 sequence (Q99828 1-191): T1 sequence (Q99828 1-191)

[4] = molecular target: T4, CIB1 and αIIb interaction (GST-CIB1 : F-αIIb peptide) (Homo sapiens, UniProt Q99828); test: FP assay, 384-well format (screen); assay type: binding; parameters: 384-well SCREEN Efficacy (%): concentration or dose not given beside the values; details: for 384-well SCREEN Efficacy (%) / 384-well SCREEN Confirm? / IC50: F-αIIb peptide; for 384-well SCREEN Confirm?: YES/NO; for IC50: read-out: 384-well SCREEN IC50
T4 construct: made in house; host or cells: BL-21 plus RIL cells (E. coli)
T4 sequence (Q99828 1-191): T1 sequence (Q99828 1-191)

[5] = molecular target: T3, GST-CIB1 : F-scrambled peptide; test: FP scrambled-peptide counter screen, 384-well format; assay type: binding; details: F-scrambled peptide; for 384-well COUNTERSCREEN Confirm?: *: Curve in opposite direction; for IC50: read-out: 384-well COUNTERSCREEN IC50
[6] = molecular target: T5, CIB1 and αIIb interaction (CIB1-GST : F-αIIb peptide) (Homo sapiens, UniProt Q99828); test: FP assay, 1536-well qHTS format (primary and confirmatory screen); assay type: binding; details: for CONFIRMATORY SCREEN Curve Class: qHTS curve class; for CONFIRMATORY SCREEN Curve Class / Curve Class: negative sign = inhibitory curve; for CONFIRMATORY SCREEN Confirm?: YES/NO call
T5 construct: made in house; host or cells: BL-21 plus RIL cells (E. coli)
T5 sequence (Q99828 1-191): T1 sequence (Q99828 1-191)

[7] = FP assay in the presence of glutathione (GSH +), read-out: GSH (+) Assay IC50
[8] = FP assay without glutathione (GSH -), read-out: GSH (-) Assay IC50
[9] = scrambled-peptide counterscreen
[10] = confirmatory screen, read-out: CONFIRMATORY SCREEN IC50
[11] = qHTS primary screen hits, Table S2, negative = inhibition
[12] = qHTS primary screen hits, Table S2, several classes where COUNT > 1
[13] = qHTS primary screen hits, Table S2, read-out: IC50
[14] = with vs without 10 μM reduced GSH
[15] = concentrations tested 60, 30, 15, 7.5
[16] = confirmatory screen, negative = inhibition
[17] = qHTS FP screen hits, Table S2, negative = inhibition
[18] = qHTS FP screen hits, Table S2, one class per curve where COUNT > 1
[19] = qHTS FP screen hits, Table S2, read-out: IC50

Row | Compound | IC50 [1, 7] | IC50 [1, 8] | GSH/CIB1 IC50 ratio [1] | GSH Assay Result [1] | Active in Gel Assay? [2] | COUNTERSCREEN Curve Class [3, 9] | IC50 [3, 9] | 384-well SCREEN Efficacy (%) [4] | 384-well SCREEN Confirm? [4] | IC50 [4] | 384-well COUNTERSCREEN Efficacy (%) [5] | 384-well COUNTERSCREEN Confirm? [5] | IC50 [5] | CONFIRMATORY SCREEN Curve Class ([6]; confirmatory screen) | IC50 [6, 10] | Efficacy (%) [6, 11] | COUNTERSCREEN Efficacy (%) [3, 9] | COUNTERSCREEN Confirm? [3, 9] | CONFIRMATORY SCREEN Confirm? ([6]; confirmatory screen) | CONFIRMATORY SCREEN Efficacy (%) [6, 16] | also measured
1 | COc1cccc(-n2c(SCc3cc(=O)oc4cc(O)c(O)cc34)nc3ccccc3c2=O)c1.O=C(O)C(F)(F)F [NCGC00371345-01] | 15.9 µM | 20 µM | 0.8 | No change | YES | -2.4 | 8.9 µM | 73% | YES | 11.2 µM | 38% | Inconclusive | 7.1 µM | -1.1 | 14.1 µM | -34% |  |  |  |  | COUNTERSCREEN Efficacy (%) [3]: -35%; Confirm and Selective? ([4]; selective toward αIIb: negative curve class and/or IC50 ratio of >3-fold and/or >2-fold efficacy vs scrambled peptide): Inconclusive; CONFIRMATORY SCREEN Efficacy (%) [6]: -90%; Curve Class [6, 12]: -1.4; IC50 [6, 13]: 4.5 µM
2 | CC(C)(C)c1ccc(SC2=NS(=O)(=O)c3ccccc32)cc1 [NCGC00189495-01] | > 120 µM | 6.2 µM | 28.3 |  | YES | 4 |  | 35% | YES | 8.9 µM | 25% | YES | > 120 µM | -2.4 | 31.6 µM |  | 0% | YES | YES | -62% | shift in potency in the presence of GSH [1, 14]: right-shift in potency; Inhibited concentration in gel (µM) [2, 15]: 60,30 µM; Efficacy (%) [6, 17]: -38%; Curve Class [6, 18]: -2.2; IC50 [6, 19]: 39.8 µM
3 | CCN(CC)C(=S)SSC(=S)N(CC)CC [NCGC00016000-13, disulfiram, reference compound] | 27 µM | 3.2 µM | 8.5 |  | YES | 4 |  | 95% | YES | 1.6 µM | 34% | YES | > 120 µM | -1.2 | 14.1 µM |  | -13% | YES | YES | -72% | IC50 shift in the presence of GSH [1]: 8.5 fold
4 | CC(C)=CCC[C@]1(C)C=Cc2c(O)c3c(c(CC=C(C)C)c2O1)O[C@]12C(=C[C@@H]4CC1C(C)(C)O[C@@]2(C/C=C(/C)C(=O)O)C4=O)C3=O [NCGC00485239-01] | 2.4 µM | 2 µM | 1.2 | No change | YES | 1.4 | 12.6 µM | 60% | YES | 3.6 µM | 40% | YES | > 120 µM | -1.2 | 8.9 µM |  | 32% | YES | YES | -54% | Inhibited concentration in gel (µM) [2, 15]: 60,30 µM; Efficacy (%) [6, 17]: -34%; Curve Class [6, 18]: -1.2; IC50 [6, 19]: 11.2 µM
5 | O=C1C(I)=CC(=C(c2cc(I)c([O-])c(I)c2)c2ccccc2C(=O)[O-])C=C1I.[Na+].[Na+] [NCGC00161636-02] | 28.2 µM | 15.9 µM |  | No change | YES |  | 89.1 µM | 78% | YES | 31.6 µM | 105% | YES | 14.1 µM | -1.2 | 11.2 µM |  | 435% | YES | YES | -74% | Inhibited concentration in gel [2, 15]: 60 µM; IC50 ([6]; IC50 [μM], qHTS FP screen hits, Table S2): 17.8 µM; Efficacy (%) [6, 17]: -47%; Curve Class [6, 18]: -1.2
6 | O=[N+]([O-])c1cnc(Sc2nnc(O)n2-c2ccc3c(c2)OCCO3)s1 [NCGC00263145-01] |  |  |  |  | YES | 4 |  | 67% | YES | 2.2 µM | 89% | YES | 89.1 µM | -1.4 | 11.2 µM | -40% | 15% | YES | YES | -64% | Curve Class [6, 12]: -2.2; IC50 [6, 13]: 21.5 µM
7 | S=C(SSC(=S)N1CCCCC1)N1CCCCC1 [NCGC00181776-01] |  |  | 30.8 |  |  |  |  |  |  |  |  |  |  |  |  |  |  |  |  |  | IC50 ([1]; GSH (+) Assay IC50, FP assay in the presence of glutathione (GSH +)): > 120 µM; IC50 ([1]; GSH (-) Assay IC50, FP assay without glutathione (GSH -)): 4.6 µM
8 | O=c1[nH]sc2cc(Cl)ccc12 [NCGC00262908-01, ticlatone, reference compound] | 10.3 µM | 0.234 µM | 44.0 |  | YES | 4 |  | 79% | YES | 0.562 µM | 95% | YES | > 120 µM | -1.2 | 2.8 µM | -68% | 10% | YES | YES | -50% | shift in potency in the presence of GSH [1, 14]: right-shift in potency; Curve Class ([6]; qHTS primary screen hits, Table S2): -1.2; IC50 [6, 13]: 3.5 µM
9 | CN(C)C(=S)SSC(=S)N(C)C [NCGC00091563-02, thiram, reference compound] | 8.3 µM | 1 µM | 8.3 |  | YES |  |  | 78% | YES | 2.8 µM | 44% | YES | > 120 µM |  |  |  |  |  |  |  | IC50 shift in the presence of GSH [1, 14]: 8.3 fold
10 | CCCCCCCCOc1ccccc1C(=O)Nc1ccc(C(=O)OCC[N+](C)(CC)CC)cc1.[Br-] [NCGC00163507-02] |  |  |  |  |  | 4 |  | 69% | YES | 12.6 µM | 39% | YES | > 120 µM | -3 | 39.8 µM |  | 0% | YES | YES | -60% | 
